These results are taken from patent US8664277B2, “Compounds and methods for PKCθ inhibition” (Complegen Partners, LLC, priority 2008, dated 2014).

What all share (format): cell-based
For experiment [1], the target named is T1, Human PKC theta (Homo sapiens, UniProt Q04759).
T1 construct: expressed in transfected cells; host or cells: yeast (XenoGene strain)
Put plainly: XenoGene yeast growth inhibition, yeast containing human PKC theta gene. The text has this:
Using the XenoGene™ system described within, compounds inhibiting PKCθ are identified. The XenoGene™ system is a technology developed and patented by CompleGen wherein genes (“XenoGenes”™) from a target organism (e.g. humans) are used to functionally replace essential genes of a simple organism (yeast). These modified yeast are used to select compounds that act specifically on the protein encoded by the target gene and eliminate compounds that are not specific. […]

The target in experiment [2] is T2, PKC eta (Homo sapiens, UniProt P24723).
T2 construct: expressed in transfected cells; host or cells: yeast (XenoGene strain)
T2 sequence (P24723 whole entry): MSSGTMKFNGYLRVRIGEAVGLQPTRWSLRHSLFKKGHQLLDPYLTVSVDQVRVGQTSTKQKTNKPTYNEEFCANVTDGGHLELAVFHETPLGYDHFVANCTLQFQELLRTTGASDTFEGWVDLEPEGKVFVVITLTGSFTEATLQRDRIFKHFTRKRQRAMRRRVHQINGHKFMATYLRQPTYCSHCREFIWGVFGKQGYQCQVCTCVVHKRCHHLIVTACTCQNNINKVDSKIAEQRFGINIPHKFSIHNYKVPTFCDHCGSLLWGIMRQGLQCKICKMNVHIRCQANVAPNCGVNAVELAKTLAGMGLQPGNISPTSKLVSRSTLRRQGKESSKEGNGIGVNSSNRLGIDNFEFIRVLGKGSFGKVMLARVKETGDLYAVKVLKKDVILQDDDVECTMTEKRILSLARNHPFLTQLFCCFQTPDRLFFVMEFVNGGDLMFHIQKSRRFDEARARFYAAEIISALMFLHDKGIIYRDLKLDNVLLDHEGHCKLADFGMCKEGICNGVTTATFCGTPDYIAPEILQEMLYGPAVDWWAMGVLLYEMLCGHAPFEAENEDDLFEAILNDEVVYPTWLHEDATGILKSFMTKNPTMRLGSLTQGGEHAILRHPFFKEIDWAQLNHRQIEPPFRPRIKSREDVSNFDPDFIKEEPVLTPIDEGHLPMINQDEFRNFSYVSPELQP
Put plainly: XenoGene counter-screen, PKC eta. The note with it: inverse of (PKC-theta IC50)/(PKC-X IC50). The protocol: (§1) To identify compounds as being selective PKC theta inhibitors the IC50 values are determined against XenoGene™ strains containing other XenoGenes™, especially certain other PKC genes (see Example 10).
(§2) Human PKC theta gene (cDNA) was used to generate a XenoGene™ system as previously described (U.S. Pat. Nos. 6,998,261, 6,232,074), which was used to screen compounds in a chemical compound library. XenoGene™ systems used as counter-screens were constructed similarly using the gene for the appropriate counter-screen target. In particular, human genes (cDNA) encoding PKC delta, PKC eta and PKC epsilon were used to generate XenoGene™ systems.
For orientation: A counterscreen serves to expose hits that act by an unwanted route or on another target.

The target in experiment [3] is T3, PKC epsilon (Homo sapiens, UniProt Q02156).
T3 construct: expressed in transfected cells; host or cells: yeast (XenoGene strain)
T3 sequence (Q02156 1-737): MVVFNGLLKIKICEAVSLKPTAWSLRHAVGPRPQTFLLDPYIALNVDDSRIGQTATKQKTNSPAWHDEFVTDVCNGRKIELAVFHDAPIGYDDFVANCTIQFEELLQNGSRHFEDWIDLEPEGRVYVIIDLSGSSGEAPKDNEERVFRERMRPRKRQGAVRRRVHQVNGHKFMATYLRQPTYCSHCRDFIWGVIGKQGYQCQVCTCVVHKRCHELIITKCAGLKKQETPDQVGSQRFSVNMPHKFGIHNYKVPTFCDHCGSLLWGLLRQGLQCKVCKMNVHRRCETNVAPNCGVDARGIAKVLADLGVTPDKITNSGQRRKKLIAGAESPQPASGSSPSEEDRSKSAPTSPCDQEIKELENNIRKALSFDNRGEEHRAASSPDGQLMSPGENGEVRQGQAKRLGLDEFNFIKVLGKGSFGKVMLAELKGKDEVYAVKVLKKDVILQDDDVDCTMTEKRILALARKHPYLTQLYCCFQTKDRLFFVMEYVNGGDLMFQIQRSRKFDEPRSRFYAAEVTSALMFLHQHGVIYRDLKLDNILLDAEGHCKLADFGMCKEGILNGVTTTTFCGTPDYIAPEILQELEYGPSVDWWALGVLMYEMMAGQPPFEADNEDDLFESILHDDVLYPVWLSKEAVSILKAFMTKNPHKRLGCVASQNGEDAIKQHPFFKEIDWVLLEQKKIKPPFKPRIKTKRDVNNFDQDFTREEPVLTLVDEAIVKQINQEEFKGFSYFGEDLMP
Put plainly: XenoGene counter-screen, PKC epsilon. The note with it: inverse of (PKC-theta IC50)/(PKC-X IC50). The procedure: as §1, §2

Experiment [4] concerns the target T4, PKC delta (Homo sapiens, UniProt Q05655).
T4 construct: expressed in transfected cells; host or cells: yeast (XenoGene strain)
The experiment in a line: XenoGene counter-screen, PKC delta. The note with it: inverse of (PKC-theta IC50)/(PKC-X IC50). The protocol:
as §1, §2

For experiment [5], the target named is T5, yeast PKC1 (Saccharomyces cerevisiae, UniProt P24583).
T5 construct: endogenous in cells; host or cells: yeast control strain
T5 sequence (P24583 1-1151): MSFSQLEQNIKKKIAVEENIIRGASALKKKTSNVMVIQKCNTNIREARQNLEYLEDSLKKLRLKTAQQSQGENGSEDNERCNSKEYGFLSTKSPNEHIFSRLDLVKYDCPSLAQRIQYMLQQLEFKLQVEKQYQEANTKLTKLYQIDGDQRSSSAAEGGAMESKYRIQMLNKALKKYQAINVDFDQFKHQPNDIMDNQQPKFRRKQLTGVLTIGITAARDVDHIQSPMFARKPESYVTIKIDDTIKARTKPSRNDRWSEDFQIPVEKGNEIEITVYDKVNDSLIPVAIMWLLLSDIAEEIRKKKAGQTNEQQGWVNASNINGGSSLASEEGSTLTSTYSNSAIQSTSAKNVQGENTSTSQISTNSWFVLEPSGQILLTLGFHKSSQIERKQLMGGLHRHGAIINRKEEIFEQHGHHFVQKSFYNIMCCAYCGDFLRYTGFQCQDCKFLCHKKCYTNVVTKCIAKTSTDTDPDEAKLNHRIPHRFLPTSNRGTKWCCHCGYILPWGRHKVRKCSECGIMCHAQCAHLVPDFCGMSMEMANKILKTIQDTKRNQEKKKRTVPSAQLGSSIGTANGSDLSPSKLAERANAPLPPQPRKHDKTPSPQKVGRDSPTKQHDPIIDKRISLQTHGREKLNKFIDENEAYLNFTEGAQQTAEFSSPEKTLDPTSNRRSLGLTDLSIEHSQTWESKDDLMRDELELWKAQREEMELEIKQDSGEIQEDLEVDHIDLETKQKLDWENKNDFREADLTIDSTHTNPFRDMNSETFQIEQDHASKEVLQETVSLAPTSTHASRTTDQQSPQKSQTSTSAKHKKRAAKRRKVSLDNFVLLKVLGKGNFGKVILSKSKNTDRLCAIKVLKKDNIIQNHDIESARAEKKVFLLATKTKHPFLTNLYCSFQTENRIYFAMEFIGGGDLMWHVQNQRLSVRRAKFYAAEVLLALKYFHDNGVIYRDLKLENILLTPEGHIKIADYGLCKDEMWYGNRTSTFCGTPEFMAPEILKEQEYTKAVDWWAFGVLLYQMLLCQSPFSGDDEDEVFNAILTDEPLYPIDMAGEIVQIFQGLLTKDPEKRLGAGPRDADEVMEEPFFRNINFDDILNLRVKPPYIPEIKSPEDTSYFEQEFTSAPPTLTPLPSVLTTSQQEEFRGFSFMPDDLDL
The experiment in a line: XenoGene counter-screen, yeast PKC1. To be noted: inverse of (PKC-theta IC50)/(PKC-X IC50).
Excerpt: Using the XenoGene™ system described within, compounds inhibiting PKCθ are identified. The XenoGene™ system is a technology developed and patented by CompleGen wherein genes (“XenoGenes”™) from a target organism (e.g. humans) are used to functionally replace essential genes of a simple organism (yeast). These modified yeast are used to select compounds that act specifically on the protein encoded by the target gene and eliminate compounds that are not specific. XenoGene™ constructs provide a very high throughput screening system that allows identification of compounds active on the function of the target protein in a cell under physiological conditions on “first-pass” screening and further, to selectively counter-screen against 200 human targets or more if necessary. […] The relative potencies of the active compounds is determined by titration to find the concentration of compound providing 50% inhibition of growth (IC50) against the yeast containing the target gene (Table 1).
as §2

The mark [6] stands for this setting: 50% inhibition of growth of yeast containing the target gene, read-out: IC50.
The mark [7] stands for this setting: IC50, 50% inhibition of growth of yeast containing the target gene.
The mark [8] stands for this setting: XenoGene system, read-out: PKC-theta IC50.

Like-named read-outs stand apart in the source and are kept apart here.

T4 sequence (Q05655 whole entry): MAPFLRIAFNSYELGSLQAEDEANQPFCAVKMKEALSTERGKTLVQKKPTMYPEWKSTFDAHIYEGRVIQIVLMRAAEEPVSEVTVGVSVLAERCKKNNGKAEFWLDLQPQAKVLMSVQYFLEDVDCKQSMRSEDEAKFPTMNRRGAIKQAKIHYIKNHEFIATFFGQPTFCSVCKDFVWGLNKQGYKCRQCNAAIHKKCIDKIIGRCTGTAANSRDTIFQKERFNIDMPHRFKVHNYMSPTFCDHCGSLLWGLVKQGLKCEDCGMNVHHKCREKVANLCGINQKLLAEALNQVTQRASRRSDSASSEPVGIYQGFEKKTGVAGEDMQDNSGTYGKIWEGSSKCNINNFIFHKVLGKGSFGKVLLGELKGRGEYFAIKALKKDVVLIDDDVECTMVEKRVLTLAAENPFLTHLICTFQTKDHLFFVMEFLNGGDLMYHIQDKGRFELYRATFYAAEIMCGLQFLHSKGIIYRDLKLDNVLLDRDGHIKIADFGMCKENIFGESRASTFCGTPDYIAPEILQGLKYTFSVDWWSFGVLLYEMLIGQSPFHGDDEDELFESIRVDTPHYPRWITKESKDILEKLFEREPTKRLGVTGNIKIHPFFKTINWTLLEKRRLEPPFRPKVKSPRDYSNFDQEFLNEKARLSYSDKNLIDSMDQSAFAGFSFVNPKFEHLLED
T1 sequence (Q04759 whole entry): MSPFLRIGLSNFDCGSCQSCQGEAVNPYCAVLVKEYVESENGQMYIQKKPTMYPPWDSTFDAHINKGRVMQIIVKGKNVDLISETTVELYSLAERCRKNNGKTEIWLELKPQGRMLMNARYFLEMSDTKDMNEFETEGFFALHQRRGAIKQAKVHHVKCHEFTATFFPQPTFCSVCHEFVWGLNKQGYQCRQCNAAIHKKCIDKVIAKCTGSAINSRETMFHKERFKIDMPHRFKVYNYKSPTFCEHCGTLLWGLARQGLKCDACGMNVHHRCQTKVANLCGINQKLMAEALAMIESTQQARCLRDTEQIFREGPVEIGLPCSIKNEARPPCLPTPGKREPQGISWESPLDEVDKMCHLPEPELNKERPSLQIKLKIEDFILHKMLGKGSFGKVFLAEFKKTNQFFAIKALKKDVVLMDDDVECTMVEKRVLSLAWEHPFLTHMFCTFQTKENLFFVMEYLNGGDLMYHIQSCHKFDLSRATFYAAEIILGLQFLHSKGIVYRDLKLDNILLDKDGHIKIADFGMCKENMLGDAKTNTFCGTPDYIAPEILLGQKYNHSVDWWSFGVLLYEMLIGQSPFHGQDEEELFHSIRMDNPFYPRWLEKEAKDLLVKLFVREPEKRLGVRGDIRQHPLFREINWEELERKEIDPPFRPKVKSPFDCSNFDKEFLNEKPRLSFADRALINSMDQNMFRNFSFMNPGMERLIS

One may read the IC50 as the concentration that gives 50% inhibition. In the case of `CC(C)(C)c1ccc(Oc2ccc(N)nc2)cc1` [Compound 486], the IC50 in experiment [1] (setting [6]) is greater than 10000 nM.

Regarding `Nc1ccc(Oc2ccc(OC(F)(F)F)cc2Cl)cc1` [Compound 498], the 50% inhibitory concentration (IC50) in experiment [1] (setting [6]) was less than 1000 nM.

`Nc1ccc(Oc2ccc(C(F)(F)F)cc2Cl)cc1` [Compound 499] yielded an IC50 in experiment [1] (setting [7]) of less than 1000 nM. For `Nc1ccc(Oc2ccccc2)cc1` [Compound 500], in experiment [1] (setting [6]), the IC50 was greater than 10000 nM. `CC(=O)Nc1ccc(Oc2ccc(Cl)cc2Cl)cc1` [Compound 501] yielded an IC50 in experiment [1] (setting [7]) greater than 10000 nM. Regarding `Nc1ccc(Oc2cc(Cl)cc(Cl)c2)cc1` [Compound 504], the “Selectivity for PKC-theta v. PKC-eta” value in experiment [2] turned out to be 1.8. The “Selectivity for PKC-theta v. PKC-epsilon” value in experiment [3] stood at 8.8. Moreover, the concentration for half-maximal inhibition (IC50) in experiment [1] (setting [6]) is 1000 to 10000 nM; in experiment [1] (setting [8]), 1600 nM. The “Selectivity for PKC-theta v. PKC-delta” value in experiment [4] is on record as 8.1. With `Cc1cc(Oc2ccc(N)cc2)ccc1Cl` [Compound 505], the “Selectivity for PKC-theta v. PKC-eta” value in experiment [2] worked out at 3.0. Also, the “Selectivity for PKC-theta v. PKC-epsilon” value in experiment [3] was determined as 11. For the same compound, the results for the IC50 in experiment [1] (setting [6]) and in experiment [1] (setting [8]) were less than 1000 nM and 400 nM, respectively. Also, the “Selectivity for PKC-theta v. PKC-delta” value in experiment [4] stood at 13. Turning to `Nc1ccc(Oc2ccc(Cl)cc2Cl)cc1` [Compound 506, 4-(2,4-dichlorophenoxy)aniline], in experiment [2], the “Selectivity for PKC-theta v. PKC-eta” value is 0.63. In experiment [3], the “Selectivity for PKC-theta v. PKC-epsilon” value was found to be 2.5. The “Selectivity for PKC-theta v. yeast PKC1” value in experiment [5] came to 9.4. For the same compound, the values for the IC50 in experiment [1] (setting [6]) and in experiment [1] (setting [8]) were 1000 to 10000 nM and 1600 nM, respectively. Besides, the “Selectivity for PKC-theta v. PKC-delta” value in experiment [4] amounted to 1.9. `Cc1cc(Oc2ccc(N)cc2)ccc1Cl` [Compound 507]: the IC50 in experiment [1] (setting [6]) was 1000 to 10000 nM.

Take `Cc1ccc(Oc2ccc(N)cc2)cc1` [Compound 508]: in experiment [1] (setting [6]), the IC50 lay in the range of 1000 to 10000 nM. In the case of `Nc1ccc(Oc2ccc(OC(F)(F)F)cc2)cc1` [Compound 510], the IC50 in experiment [1] (setting [6]) is less than 1000 nM. `Nc1ccc(Oc2ccccc2C(=O)O)cc1` [Compound 553]: the IC50 in experiment [1] (setting [6]) is greater than 10000 nM. `CCC(C)(C)c1ccc(Oc2ccc(N)cc2)cc1` [Compound 730]: in experiment [1] (setting [6]), the IC50 is less than 1000 nM. Regarding `Nc1ccc(Oc2ccc(C(F)(F)F)cc2)cc1` [Compound 733], the IC50 in experiment [1] (setting [6]) was in the range of 1000 to 10000 nM. Turning to `CC(C)(C)c1ccc(Sc2ccc(N)cc2)cc1` [Compound 740], the “Selectivity for PKC-theta v. PKC-eta” value in experiment [2] was 3.0. Also, in experiment [3], the “Selectivity for PKC-theta v. PKC-epsilon” value is 12. Further, the “Selectivity for PKC-theta v. yeast PKC1” value in experiment [5] is 80. Also, the IC50 was less than 1000 nM in experiment [1] (setting [6]) and 50 nM in experiment [1] (setting [8]). Further, the “Selectivity for PKC-theta v. PKC-delta” value in experiment [4] was 26. As for `Nc1ccc(Sc2ccc(C(F)(F)F)cc2)cc1` [Compound 741], the “Selectivity for PKC-theta v. PKC-eta” value in experiment [2] was 4.0. Further, the “Selectivity for PKC-theta v. PKC-epsilon” value in experiment [3] was 16. In addition, the “Selectivity for PKC-theta v. yeast PKC1” value in experiment [5] was 32. Moreover, the IC50 was less than 1000 nM in experiment [1] (setting [6]) and 250 nM in experiment [1] (setting [8]). Also, in experiment [4], the “Selectivity for PKC-theta v. PKC-delta” value stood at 8.0. As for `CC(C)c1ccc(Oc2ccc(N)cc2)cc1` [Compound 742], the IC50 in experiment [1] (setting [6]) is less than 1000 nM. For the compound `CCCc1ccc(Oc2ccc(N)cc2)cc1` [Compound 745], the IC50 in experiment [1] (setting [6]) is less than 1000 nM.

Take `Nc1ccc(Oc2ccc(C(F)(F)F)cc2Br)cc1` [Compound 747]: the IC50 in experiment [1] (setting [6]) was less than 1000 nM.

As for `CC(C)(C)c1ccc(S(=O)(=O)c2ccc(N)cc2)cc1` [Compound 749], in experiment [1] (setting [6]), the IC50 fell in the range of 1000 to 10000 nM.

As for `CC(C)(C)c1ccc(S(=O)(=O)c2ccc(N)cc2)cc1` [Compound 750], in experiment [1] (setting [6]), the IC50 was greater than 10000 nM.

Turning to `Nc1ccc([S+]([O-])c2ccc(C(F)(F)F)cc2)cc1` (centres unmarked) [Compound 751], in experiment [1] (setting [6]), the IC50 is greater than 10000 nM. Turning to `Nc1ccc(S(=O)(=O)c2ccc(C(F)(F)F)cc2)cc1` [Compound 753], the IC50 in experiment [1] (setting [6]) is 1000 to 10000 nM. On to `Nc1ccc(Oc2ccc(C3CCCC3)cc2)cc1` [Compound 761], for which the IC50 in experiment [1] (setting [6]) was less than 1000 nM.
